Assay results taken from patent US4963544A, “3-pyrrolidinylthio-1-azabicyclo[3.2.0]-hept-2-ene-2-carboxylic acid compounds” (Fujisawa Pharmaceutical Company, Ltd., priority 1988, dated 1990).
Converted amounts (≈) assume the structure as drawn.

System: E. Coli 31
Assay: in vitro antimicrobial activity, two-fold agar-plate dilution method
Format: cell-based
Conditions: Escherichia coli; test strain E. Coli 31; 10^6 viable cells per ml; HI-agar; 37° C., 20 hours; read-out: MIC (minimal inhibitory concentration)
Procedure: in vitro Antimicrobial Activity was determined by the two-fold agar-plate dilution method as described blow.
One loopful of an overnight culture of a test strain in Trypticase-soy broth (10^6 viable cells per ml) was streaked on heart infusion agar (HI-agar) containing graded concentrations of the test compound, and the minimal inhibitory concentration (MIC) was expressed in terms of μg/ml after incubation at 37° C. for 20 hours.

MIC: 0.05 µg/mL (≈ 0.127 µM)
Compound: C[C@@H](O)[C@H]1C(=O)N2C(C(=O)O)=C(S[C@@H]3CN[C@H](Cn4ccnc4)C3)[C@H](C)[C@H]12 [Example 2, (4R,5S,6S)-6-((IR)-1-hydroxyethyl) -3-((2S,4S)-2-(imidazol-1-yl)-methylpyrrolidin-4-yl) thio-4-methyl-7-oxo-1-azabicyclo(3.2.0) -hept-2-ene-2-carboxylic acid]
